{
  "source": "patent US20110038948A1",
  "about": "“Methods of Reducing the Production of Reactive Oxygen Species and Methods of Screening or Identifying Compounds and Compositions that Reduce the Production of Reactive Oxygen Species” (UNIVERSITY OF TENNESSEE RESEARCH FOUNDATION, priority 2005, published 2011)",
  "key": {"3T3-L1 adipocytes": {"test_system": "3T3-L1 adipocytes", "test": "Intracellular Ca2+ in cultured adipocytes (fura-2)", "format": "cell-based, mouse", "settings": "H2O2 100 nmol/L, 4 hours; p<0.001", "method": "3T3-L1 preadipocytes were incubated at a density of 8000 cells/cm^2 (10 cm^2 dish) and grown in Dulbecco's modified Eagle's medium (DMEM) containing 10% FBS and antibiotics (adipocyte medium) at 37° C. in 5% CO2 in air. Confluent preadipocytes were induced to differentiate with a standard differentiation medium consisting of DMEM-F10 (1:1, vol/vol) medium supplemented with 1% FBS, 1 μM dexamethasone, IBMX (0.5 mM) and antibiotics (1% Penicillin-Streptomycin). Preadipocytes were maintained in this differentiation medium for 3 days and subsequently cultured in adipocyte medium. Cultures were re-fed every 2-3 days to allow 90% of cells to reach full differentiation before conducting chemical treatment. Chemicals were freshly diluted in adipocyte medium before treatment. Cells were washed with fresh adipocyte medium, re-fed with medium containing the different treatments, and incubated at 37° C. in 5% CO2 in air before analysis. Cell viability was measured via trypan blue exclusion. [Ca^2+]i in adipocytes was measured using a fura-2 dual-wavelength fluorescence imaging system. Cells were plated in 35-mm dishes […]). […] Cells were loaded with fura-2 acetoxymethyl ester (fura-2 AM) (10 μmol/L) in the same buffer for 2 h at 37° C. in a dark incubator with 5% CO2. To remove extracellular dye, cells were rinsed with HBSS three times and then post-incubated at room temperature for an additional 1 h for complete hydrolysis of cytoplasmic fura-2 AM. The dishes with dye-loaded cells were mounted on the stage of Nikon TMS-F fluorescence inverted microscope with a Cohu model 4915 charge-coupled device (CCD) camera. Fluorescent images were captured alternatively at excitation wavelengths of 340 and 380 nm with an emission wavelength of 520 nm. After establishment of a stable baseline, the responses to 1α, 25-(OH)2-D3 was determined. [Ca^2+]i was calculated using a ratio equation as described previously. Each analysis evaluated responses of 5 representative whole cells. Images were analyzed with […]2 version 4.62 imaging software (Intracellular Imaging, Cincinnati, Ohio). […]"}, "adiponectin": {"test_system": "adiponectin", "test": "Adiponectin expression in 3T3-L1 adipocytes", "format": "cell-based, mouse", "settings": "48 h", "method": "3T3-L1 pre-adipocytes were incubated at a density of 8000 cells/cm^2 (10 cm^2 dish) and grown in Dulbecco's modified Eagle's medium (DMEM) containing 10% FBS and antibiotics (adipocyte medium) at 37° C. in 5% CO2 in air. Confluent pre-adipocytes were induced to differentiate with a standard differentiation medium consisting of DMEM-F10 (1:1, vol/vol) medium supplemented with 1% fetal bovine serum (FBS), 1 μM dexamethasone, isobutylmethylxanthine (IBMX) (0.5 mM) and antibiotics (1% Penicillin-Streptomycin). Pre-adipocytes were maintained in this differentiation medium for 3 days and subsequently cultured in adipocyte medium. Cultures were re-fed every 2-3 days to allow 90% cells to reach fully differentiation before conducting chemical treatment. […] Cell viability was measured via trypan blue exclusion. Adipocyte and muscle 18s, TNFα, IL-6, IL-8, IL-15 and adiponectin were quantitatively measured using a smart cycler real-time PCR system (Cepheid, Sunnyvale, Calif.) with a TaqMan 1000 Core Reagent Kit (Applied Biosystems, Branchburg, N.J.). […] Reactions of quantitative RT-PCR for standards and unknown samples were also performed according to the instructions of Smart Cycler System (Cepheid, Sunnyvale, Calif.) and TaqMan Real Time PCR Core Kit (Applied Biosystems, Branchburg, N.J.). The mRNA quantitation for each sample was further normalized using the corresponding 18s quantitation."}},
  "data": [
    {"smiles": "OO", "note": "[H2O2, hydrogen peroxide]", "values": [
      {"measurement": "increase in [Ca2+]i", "setting": "3T3-L1 adipocytes", "value": 5, "unit": "fold"},
      {"measurement": "effect on adiponectin production", "setting": "adiponectin", "value": "without significant effect"}
    ]}
  ]
}
